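Five concentrations, 48 hours, 96-well plates. Here, GI50 denotes the concentration required for 50% inhibition of growth. At the TGI there is no net growth.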
Columns and labels:
Assay in all cases: inhibition of tumour cell growth, NCI panel, 48 h
[1] = system: 786-0 renal
[2] = system: A498 renal
[3] = system: A549 NSCLC
[4] = system: ACHN renal
[5] = system: BT-549 breast
[6] = system: CAKI-1 renal
[7] = system: CCRF-CEM leukemia
[8] = system: COLO 205 colon
[9] = system: DU-145 prostate
[10] = system: EKVX NSCLC
[11] = system: HCC-2998 colon
[12] = system: HCT-116 colon
[13] = system: HCT-15 colon
[14] = system: HL-60(TB) leukemia
[15] = system: HOP-62 NSCLC
[16] = system: HOP-92 NSCLC
[17] = system: HS 578T breast
[18] = system: HT29 colon
[19] = system: IGROV1 ovarian
[20] = system: K-562 leukemia
[21] = system: KM12 colon
[22] = system: LOX IMVI melanoma
[23] = system: M14 melanoma
[24] = system: MALME-3M melanoma
[25] = system: MCF7 breast
[26] = system: MDA-MB-231 breast
[27] = system: MDA-MB-435
[28] = system: MOLT-4 leukemia
[29] = system: NCI-H226 lung
[30] = system: NCI-H23 lung
[31] = system: NCI-H460 lung
[32] = system: NCI-H522 lung
[33] = system: NCI/ADR-RES ovarian
[34] = system: OVCAR-3 ovarian
[35] = system: OVCAR-4 ovarian
[36] = system: OVCAR-5 ovarian
[37] = system: OVCAR-8 ovarian
[38] = system: PC-3 prostate
[39] = system: RPMI-8226 leukemia
[40] = system: RXF 393 renal
[41] = system: SF-268 CNS
[42] = system: SF-295 CNS
[43] = system: SF-539 CNS
[44] = system: SK-MEL-2 melanoma
[45] = system: SK-MEL-28 melanoma
[46] = system: SK-MEL-5 melanoma
[47] = system: SK-OV-3 ovarian
[48] = system: SN12C renal
[49] = system: SNB-19 CNS
[50] = system: SNB-75 CNS
[51] = system: SW-620 colon
[52] = system: T-47D breast
[53] = system: TK-10 renal
[54] = system: U251 CNS
[55] = system: UACC-257 melanoma
[56] = system: UACC-62 melanoma
[57] = system: UO-31 renal
[58] = system: SR leukemia

C[C@H](c1ccccc1)N(CCC(=O)O)C(=O)CCN(C(=O)CCN(C(=O)CCN[C@H](C)c1ccccc1)[C@H](C)c1ccccc1)[C@H](C)c1ccccc1
GI50 [1]: > 100 µM | TGI [1]: > 100 µM | GI50 [2]: > 100 µM | TGI [2]: > 100 µM | GI50 [3]: > 100 µM | TGI [3]: > 100 µM | GI50 [4]: > 100 µM | TGI [4]: > 100 µM | GI50 [5]: > 100 µM | TGI [5]: > 100 µM | GI50 [6]: > 100 µM | TGI [6]: > 100 µM | GI50 [7]: > 100 µM | TGI [7]: > 100 µM | GI50 [8]: > 100 µM | TGI [8]: > 100 µM | GI50 [9]: > 100 µM | TGI [9]: > 100 µM | GI50 [10]: > 100 µM | TGI [10]: > 100 µM | GI50 [11]: > 100 µM | TGI [11]: > 100 µM | GI50 [12]: > 100 µM | TGI [12]: > 100 µM | GI50 [13]: > 100 µM | TGI [13]: > 100 µM | GI50 [14]: > 100 µM | TGI [14]: > 100 µM | GI50 [15]: > 100 µM | TGI [15]: > 100 µM | GI50 [16]: 92 µM | TGI [16]: > 100 µM | GI50 [17]: > 100 µM | TGI [17]: > 100 µM | GI50 [18]: > 100 µM | TGI [18]: > 100 µM | GI50 [19]: > 100 µM | TGI [19]: > 100 µM | GI50 [20]: > 100 µM | TGI [20]: > 100 µM | GI50 [21]: > 100 µM | TGI [21]: > 100 µM | GI50 [22]: > 100 µM | TGI [22]: > 100 µM | GI50 [23]: > 100 µM | TGI [23]: > 100 µM | GI50 [24]: > 100 µM | TGI [24]: > 100 µM | GI50 [25]: > 100 µM | TGI [25]: > 100 µM | GI50 [26]: > 100 µM | TGI [26]: > 100 µM | GI50 [27]: > 100 µM | TGI [27]: > 100 µM | GI50 [28]: > 100 µM | TGI [28]: > 100 µM | GI50 [29]: > 100 µM | TGI [29]: > 100 µM | GI50 [30]: > 100 µM | TGI [30]: > 100 µM | GI50 [31]: > 100 µM | TGI [31]: > 100 µM | GI50 [32]: > 100 µM | TGI [32]: > 100 µM | GI50 [33]: > 100 µM | TGI [33]: > 100 µM | GI50 [34]: > 100 µM | TGI [34]: > 100 µM | GI50 [35]: > 100 µM | TGI [35]: > 100 µM | GI50 [36]: > 100 µM | TGI [36]: > 100 µM | GI50 [37]: > 100 µM | TGI [37]: > 100 µM | GI50 [38]: > 100 µM | TGI [38]: > 100 µM | GI50 [39]: 58.4 µM | TGI [39]: > 100 µM | GI50 [40]: > 100 µM | TGI [40]: > 100 µM | GI50 [41]: > 100 µM | TGI [41]: > 100 µM | GI50 [42]: > 100 µM | TGI [42]: > 100 µM | GI50 [43]: > 100 µM | TGI [43]: > 100 µM | GI50 [44]: > 100 µM | TGI [44]: > 100 µM | GI50 [45]: > 100 µM | TGI [45]: > 100 µM | GI50 [46]: > 100 µM | TGI [46]: > 100 µM | GI50 [47]: > 100 µM | TGI [47]: > 100 µM | GI50 [48]: > 100 µM | TGI [48]: > 100 µM | GI50 [49]: > 100 µM | TGI [49]: > 100 µM | GI50 [50]: 66.4 µM | TGI [50]: > 100 µM | GI50 [51]: > 100 µM | TGI [51]: > 100 µM | GI50 [52]: > 100 µM | TGI [52]: > 100 µM | GI50 [53]: > 100 µM | TGI [53]: > 100 µM | GI50 [54]: > 100 µM | TGI [54]: > 100 µM | GI50 [55]: > 100 µM | TGI [55]: > 100 µM | GI50 [56]: > 100 µM | TGI [56]: > 100 µM | GI50 [57]: > 100 µM | TGI [57]: > 100 µM

CN(C)c1ccc(/C=c2/c3ccccc3n3c2cc(NC(=O)NCCC[N+](C)(C)C)[n+]3C)cc1
TGI [1]: > 100 µM | TGI [2]: > 100 µM | TGI [3]: > 100 µM | TGI [4]: > 100 µM | TGI [5]: > 100 µM | TGI [6]: > 100 µM | TGI [7]: 2.04 µM | TGI [8]: > 100 µM | TGI [9]: > 100 µM | TGI [10]: > 100 µM | TGI [12]: > 100 µM | TGI [13]: > 100 µM | TGI [14]: > 100 µM | TGI [15]: > 100 µM | TGI [16]: > 100 µM | TGI [17]: > 100 µM | TGI [18]: > 100 µM | TGI [19]: 46.9 µM | TGI [20]: > 100 µM | TGI [21]: > 100 µM | TGI [22]: > 100 µM | TGI [23]: > 100 µM | TGI [24]: > 100 µM | TGI [25]: > 100 µM | TGI [26]: > 100 µM | TGI [27]: > 100 µM | TGI [28]: > 100 µM | TGI [30]: > 100 µM | TGI [31]: > 100 µM | TGI [32]: > 100 µM | TGI [33]: > 100 µM | TGI [34]: > 100 µM | TGI [35]: 50.1 µM | TGI [36]: > 100 µM | TGI [37]: > 100 µM | TGI [38]: > 100 µM | TGI [39]: > 100 µM | TGI [40]: > 100 µM | TGI [41]: > 100 µM | TGI [42]: > 100 µM | TGI [43]: > 100 µM | TGI [44]: > 100 µM | TGI [45]: > 100 µM | TGI [46]: > 100 µM | TGI [47]: > 100 µM | TGI [49]: > 100 µM | TGI [58]: > 100 µM | TGI [51]: > 100 µM | TGI [52]: > 100 µM | TGI [53]: > 100 µM | TGI [54]: > 100 µM | TGI [55]: > 100 µM | TGI [56]: > 100 µM | TGI [57]: > 100 µM

— PubChem BioAssay (NCI)
